Calls of active or inactive are those of the source.
Key:
Large T antigen = Large T antigen (Simian virus 40, UniProt P03070); assay type: functional, Betapolyomavirus macacae;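 also: Confirmatory-stage PubChem screen for compounds that inhibit SV40 T antigen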
[1] = molecular target: T1, Voltage-gated N-type calcium channel alpha-1B subunit/Amyloid beta A4 precursor protein-binding family A member 1 (Homo sapiens, UniProt Q00975+Q02410); assay type: protein assay
[2] = molecular target: T2, Carboxy-terminal domain RNA polymerase II polypeptide A small phosphatase 1 (Homo sapiens, UniProt Q9GZU7); test: inhibitors of CTDSP1, concentration-response testing, biochemical assay, absorbance-based, actives from ultra-high-throughput screening (AID 540297); assay type: functional
T2 sequence (Q9GZU7 whole entry): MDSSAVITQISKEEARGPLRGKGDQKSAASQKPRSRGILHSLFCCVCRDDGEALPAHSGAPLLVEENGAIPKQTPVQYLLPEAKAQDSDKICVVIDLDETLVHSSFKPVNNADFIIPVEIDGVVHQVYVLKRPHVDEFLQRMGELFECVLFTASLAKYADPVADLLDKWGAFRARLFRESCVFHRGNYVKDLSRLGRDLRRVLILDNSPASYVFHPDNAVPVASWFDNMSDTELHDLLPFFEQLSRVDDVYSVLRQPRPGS

Genome polyprotein = Genome polyprotein (dengue virus type 2, UniProt P29990); test: Dengue-2 NS5 methyltransferase inhibitors, primary screen, biochemical, confirmation dose response (AID 588689); assay type: functional
[3] = molecular target: Induced myeloid leukemia cell differentiation protein Mcl-1 (Homo sapiens, UniProt Q07820); assay type: functional
Sequence of Induced myeloid leukemia cell differentiation protein Mcl-1 (Q07820 whole entry): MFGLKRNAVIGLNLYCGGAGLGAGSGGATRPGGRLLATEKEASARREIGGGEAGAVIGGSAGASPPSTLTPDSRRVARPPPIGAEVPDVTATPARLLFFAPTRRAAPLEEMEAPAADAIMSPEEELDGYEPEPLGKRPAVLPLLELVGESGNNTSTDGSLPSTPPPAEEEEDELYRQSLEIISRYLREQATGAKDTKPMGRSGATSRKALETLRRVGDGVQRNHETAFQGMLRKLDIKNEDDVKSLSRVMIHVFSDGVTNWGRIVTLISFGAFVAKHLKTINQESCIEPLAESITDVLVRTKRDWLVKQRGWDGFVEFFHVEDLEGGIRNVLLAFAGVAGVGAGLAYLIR

[4] = molecular target: T1, Voltage-gated N-type calcium channel alpha-1B subunit/Amyloid beta A4 precursor protein-binding family A member 1; assay type: protein assay; remark: listed apart in the source
[5] = molecular target: T3, RNA-binding protein pos-1 (Caenorhabditis elegans, UniProt G5EF15); test: inhibitors of POS-1/mex-3 RNA binding, dose response, biochemical, fluorescence polarization (AID 1964);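 also: purified POS-1 fused to maltose binding protein made in E. coli; potency of compounds blocking POS-1 binding to fluorescent RNA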
T3 sequence (G5EF15 whole entry): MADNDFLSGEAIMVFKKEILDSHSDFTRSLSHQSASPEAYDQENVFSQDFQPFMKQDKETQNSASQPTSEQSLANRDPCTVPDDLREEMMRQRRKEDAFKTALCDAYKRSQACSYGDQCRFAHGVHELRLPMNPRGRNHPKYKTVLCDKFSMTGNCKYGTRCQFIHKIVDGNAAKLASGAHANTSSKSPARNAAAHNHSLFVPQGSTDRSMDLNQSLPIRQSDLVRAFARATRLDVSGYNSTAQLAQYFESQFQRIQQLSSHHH

[6] = molecular target: Female germline-specific tumor suppressor gld-1 (Caenorhabditis elegans, UniProt Q17339); test: inhibitors of GLD-1 binding to TGE RNA, dose response, biochemical, fluorescence polarization, C. elegans (AID 2802);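 also: fluorescence polarization of labeled TGE RNA bound by purified gld-1 protein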
Protein Rev = Protein Rev (Human immunodeficiency virus type 1 group M subtype B (isolate HXB2)(HIV-1), UniProt P04618); test: inhibitors of Rev binding to RRE RNA, dose response, biochemical, fluorescence polarization, HIV-1 (AID 434976); design: species or system Human immunodeficiency virus 1
Sequence of Protein Rev (P04618 whole entry): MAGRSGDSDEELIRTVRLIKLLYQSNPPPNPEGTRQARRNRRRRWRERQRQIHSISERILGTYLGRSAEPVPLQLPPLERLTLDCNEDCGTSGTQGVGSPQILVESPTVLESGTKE

[7] = molecular target: T4, Zinc finger protein mex-5 (Caenorhabditis elegans, UniProt Q9XUB2); test: MEX-5/TCR-2 RNA interaction inhibitors, dose response, biochemical, C. elegans, fluorescence polarization (AID 1960)
T4 sequence (Q9XUB2 whole entry): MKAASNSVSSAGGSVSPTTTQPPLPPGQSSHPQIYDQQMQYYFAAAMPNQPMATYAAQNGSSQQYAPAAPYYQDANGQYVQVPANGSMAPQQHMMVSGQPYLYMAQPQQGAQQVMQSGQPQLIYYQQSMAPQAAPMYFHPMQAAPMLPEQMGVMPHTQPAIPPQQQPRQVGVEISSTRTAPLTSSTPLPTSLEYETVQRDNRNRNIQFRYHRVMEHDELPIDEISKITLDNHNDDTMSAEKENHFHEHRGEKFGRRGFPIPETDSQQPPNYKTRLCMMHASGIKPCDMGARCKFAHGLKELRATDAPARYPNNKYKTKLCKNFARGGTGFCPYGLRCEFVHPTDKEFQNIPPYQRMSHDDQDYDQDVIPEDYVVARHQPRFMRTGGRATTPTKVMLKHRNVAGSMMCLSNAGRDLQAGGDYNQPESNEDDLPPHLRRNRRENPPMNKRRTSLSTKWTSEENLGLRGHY

[8] = cytotoxicity in HEK-293T cells, dose response, cytotoxicity control for TCR NF-kB inhibitor project, luminescence, T-cell screen hits (AID 489026); assay type: functional, cell-based;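 also: cells exposed to compound about 14 hours before the viability readout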
[9] = ZM109 Env clade C HIV-1 fusion inhibitors, dose response, HeLa effector, CEM target cells, luciferase, cherry-pick (AID 652058); assay type: functional, cell-based
Nonstructural protein 1 = Nonstructural protein 1 (Influenza A virus, UniProt Q194T2); assay type: functional, Influenza A virus (A/California/07/2009(H1N1))
Sequence of Nonstructural protein 1 (Q194T2 whole entry, the tested form may be a part): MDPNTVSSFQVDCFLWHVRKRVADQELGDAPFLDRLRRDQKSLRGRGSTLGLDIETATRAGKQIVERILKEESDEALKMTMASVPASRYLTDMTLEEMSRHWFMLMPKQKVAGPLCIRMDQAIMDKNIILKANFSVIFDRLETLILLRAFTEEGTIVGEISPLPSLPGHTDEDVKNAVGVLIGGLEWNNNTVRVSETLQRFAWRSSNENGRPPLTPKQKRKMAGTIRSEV

[10] = molecular target: NACHT, LRR and PYD domains-containing protein 3 (Homo sapiens, UniProt Q96P20); test: NALP3 inhibitors in yeast, dose response, luminescent (AID 488799); assay type: functional
Sequence of NACHT, LRR and PYD domains-containing protein 3 (Q96P20 whole entry, the tested form may be a part): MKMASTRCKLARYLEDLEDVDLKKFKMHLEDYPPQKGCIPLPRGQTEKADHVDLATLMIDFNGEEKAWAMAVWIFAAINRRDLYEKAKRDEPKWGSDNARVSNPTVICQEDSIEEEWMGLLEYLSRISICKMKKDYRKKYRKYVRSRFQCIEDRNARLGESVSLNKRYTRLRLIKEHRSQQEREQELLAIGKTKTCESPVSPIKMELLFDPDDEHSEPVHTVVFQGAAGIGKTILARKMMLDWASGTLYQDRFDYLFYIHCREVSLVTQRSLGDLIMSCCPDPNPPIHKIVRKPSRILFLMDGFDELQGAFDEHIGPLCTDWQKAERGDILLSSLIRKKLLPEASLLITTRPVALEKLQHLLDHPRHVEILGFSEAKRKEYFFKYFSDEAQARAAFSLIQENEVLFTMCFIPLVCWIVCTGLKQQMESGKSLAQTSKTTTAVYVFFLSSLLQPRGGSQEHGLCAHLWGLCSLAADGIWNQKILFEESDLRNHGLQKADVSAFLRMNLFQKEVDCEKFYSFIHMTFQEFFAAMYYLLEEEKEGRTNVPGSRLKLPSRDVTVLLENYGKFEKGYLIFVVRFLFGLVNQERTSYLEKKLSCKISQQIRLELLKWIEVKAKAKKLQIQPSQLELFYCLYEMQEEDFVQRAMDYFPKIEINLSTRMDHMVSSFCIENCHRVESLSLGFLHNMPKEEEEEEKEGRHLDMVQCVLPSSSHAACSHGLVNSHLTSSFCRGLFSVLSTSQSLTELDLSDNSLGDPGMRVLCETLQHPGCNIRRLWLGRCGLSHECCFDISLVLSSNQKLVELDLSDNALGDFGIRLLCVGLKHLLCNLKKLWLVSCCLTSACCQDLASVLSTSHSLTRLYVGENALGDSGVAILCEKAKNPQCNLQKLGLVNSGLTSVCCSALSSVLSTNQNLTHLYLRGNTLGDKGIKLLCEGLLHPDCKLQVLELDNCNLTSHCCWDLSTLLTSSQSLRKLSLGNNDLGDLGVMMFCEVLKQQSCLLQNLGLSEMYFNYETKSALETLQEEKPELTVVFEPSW

[11] = inhibitors of clade B AD8 Env fusion, dose response, cell-based, cherry-pick (AID 652062); assay type: functional;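 also: luciferase signal from cell-cell fusion driven by HIV-1 clade B AD8 Env; potency is for inhibitors of fusion seen as a drop in luminescence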
[12] = inhibitors of HIV Env-driven cell fusion, dose response, cherry-pick (AID 652057); assay type: functional, cell-based
[13] = off-target signal loss in HeLa-CEM21 co-culture – HeLa F-luc CTL cells, cherry-picked, counter-screen for HIV-1 Env fusion inhibitor project, dose response (AID 652040); assay type: functional, cell-based;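 also: potency for signal decrease marking cytotoxic or nonspecific inhibition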
[14] = CEM21 lymphoblast cell cytotoxicity, dose response, cytotoxicity control for viral fusion inhibitor project, CellTiter-Glo luminescence, cherry-picked (AID 652042); assay type: functional, cell-based;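 also: potency for signal decrease meaning cytotoxicity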
[15] = molecular target: T1, Voltage-gated N-type calcium channel alpha-1B subunit/Amyloid beta A4 precursor protein-binding family A member 1; test: disruptors of Mint-PDZ/N-type channel peptide interaction – biochemical, HTRF, SAR follow-up (AID 2489); assay type: functional
H4 = test: Luminescence Cell-Based Dose Response HTS to Identify Activators of 5'UTR Stem-Loop Driven Prion Protein mRNA Translation in H4 Neuroglioblastoma Cells. [Related pubchem assays: 1829 (Project Summary), 1814 (Primary HTS)]; assay type: functional; details: Homo sapiens
[16] = molecular target: T5, Sentrin-specific protease 7 (Homo sapiens, UniProt Q9BQF6); assay type: functional;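 also: Luminescence-based dose-response confirmation of ultra-high-throughput screening hits, measuring inhibition of SENP7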
T5 sequence (Q9BQF6 whole entry): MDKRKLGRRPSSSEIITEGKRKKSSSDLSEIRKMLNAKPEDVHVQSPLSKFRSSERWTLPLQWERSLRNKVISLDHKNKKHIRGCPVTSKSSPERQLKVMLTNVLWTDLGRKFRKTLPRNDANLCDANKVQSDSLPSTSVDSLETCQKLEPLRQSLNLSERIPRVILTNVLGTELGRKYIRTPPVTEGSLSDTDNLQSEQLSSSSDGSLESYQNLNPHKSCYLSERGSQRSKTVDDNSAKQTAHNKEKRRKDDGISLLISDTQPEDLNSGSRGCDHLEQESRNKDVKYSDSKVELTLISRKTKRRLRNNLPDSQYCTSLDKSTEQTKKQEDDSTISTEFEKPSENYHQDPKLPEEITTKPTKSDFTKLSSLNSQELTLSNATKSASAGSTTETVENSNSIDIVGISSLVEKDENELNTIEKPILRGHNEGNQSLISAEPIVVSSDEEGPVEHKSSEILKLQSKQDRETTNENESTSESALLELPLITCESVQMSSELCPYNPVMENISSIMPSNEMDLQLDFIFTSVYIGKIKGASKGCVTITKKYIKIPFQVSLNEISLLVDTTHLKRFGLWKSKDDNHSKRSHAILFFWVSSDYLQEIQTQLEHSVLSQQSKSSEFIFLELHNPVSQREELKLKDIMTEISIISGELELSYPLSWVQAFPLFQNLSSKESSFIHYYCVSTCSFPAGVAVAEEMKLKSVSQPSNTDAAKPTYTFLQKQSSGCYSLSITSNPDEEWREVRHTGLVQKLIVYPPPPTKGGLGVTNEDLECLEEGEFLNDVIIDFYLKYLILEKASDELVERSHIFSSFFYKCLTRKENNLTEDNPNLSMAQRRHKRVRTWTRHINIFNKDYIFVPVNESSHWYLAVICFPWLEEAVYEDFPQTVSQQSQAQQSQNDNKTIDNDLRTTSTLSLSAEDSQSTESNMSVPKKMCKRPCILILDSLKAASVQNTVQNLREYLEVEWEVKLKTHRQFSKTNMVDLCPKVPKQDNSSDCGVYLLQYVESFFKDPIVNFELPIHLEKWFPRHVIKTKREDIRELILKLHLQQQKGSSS

Caspase-3 = molecular target: T6, Caspase-3 (Homo sapiens, UniProt P42574); assay type: functional;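 also: Dose-response selectivity test against caspase-3 for candidate inhibitors of sentrin-specific proteases (SENPs)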
T6 sequence (P42574 whole entry): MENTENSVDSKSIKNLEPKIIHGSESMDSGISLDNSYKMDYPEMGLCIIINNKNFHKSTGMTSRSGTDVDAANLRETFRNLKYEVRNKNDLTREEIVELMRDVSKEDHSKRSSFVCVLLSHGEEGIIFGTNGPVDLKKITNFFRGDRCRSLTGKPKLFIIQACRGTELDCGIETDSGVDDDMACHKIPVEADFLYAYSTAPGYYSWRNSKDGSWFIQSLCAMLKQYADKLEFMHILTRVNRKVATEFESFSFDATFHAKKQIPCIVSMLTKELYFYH

[17] = molecular target: T7, Sentrin-specific protease 8 (Homo sapiens, UniProt Q96LD8); assay type: functional;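 also: luminescence read-out of SENP8 inhibition, dose-response confirmation following an ultra-high-throughput screen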
T7 sequence (Q96LD8 whole entry): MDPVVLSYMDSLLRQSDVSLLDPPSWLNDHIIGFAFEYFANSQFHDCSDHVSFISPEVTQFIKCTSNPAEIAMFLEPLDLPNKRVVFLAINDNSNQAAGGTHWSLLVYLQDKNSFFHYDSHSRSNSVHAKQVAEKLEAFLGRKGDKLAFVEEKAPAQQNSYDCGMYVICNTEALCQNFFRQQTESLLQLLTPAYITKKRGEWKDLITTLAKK

[18] = Luminescence Cell-Based Dose Response HTS to Identify Activators of Luciferase Translation or Activity in H4 […] Cells. [Related pubchem assays: 1829 (Project Summary), 1814 (Primary HTS)]; assay type: functional
[19] = molecular target: T8, Sentrin-specific protease 6 (Homo sapiens, UniProt Q9GZR1); assay type: functional;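 also: Luminescence-based dose-response confirmatory assay of SENP6 inhibition, following up an ultra-high-throughput screen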
T8 sequence (Q9GZR1 whole entry): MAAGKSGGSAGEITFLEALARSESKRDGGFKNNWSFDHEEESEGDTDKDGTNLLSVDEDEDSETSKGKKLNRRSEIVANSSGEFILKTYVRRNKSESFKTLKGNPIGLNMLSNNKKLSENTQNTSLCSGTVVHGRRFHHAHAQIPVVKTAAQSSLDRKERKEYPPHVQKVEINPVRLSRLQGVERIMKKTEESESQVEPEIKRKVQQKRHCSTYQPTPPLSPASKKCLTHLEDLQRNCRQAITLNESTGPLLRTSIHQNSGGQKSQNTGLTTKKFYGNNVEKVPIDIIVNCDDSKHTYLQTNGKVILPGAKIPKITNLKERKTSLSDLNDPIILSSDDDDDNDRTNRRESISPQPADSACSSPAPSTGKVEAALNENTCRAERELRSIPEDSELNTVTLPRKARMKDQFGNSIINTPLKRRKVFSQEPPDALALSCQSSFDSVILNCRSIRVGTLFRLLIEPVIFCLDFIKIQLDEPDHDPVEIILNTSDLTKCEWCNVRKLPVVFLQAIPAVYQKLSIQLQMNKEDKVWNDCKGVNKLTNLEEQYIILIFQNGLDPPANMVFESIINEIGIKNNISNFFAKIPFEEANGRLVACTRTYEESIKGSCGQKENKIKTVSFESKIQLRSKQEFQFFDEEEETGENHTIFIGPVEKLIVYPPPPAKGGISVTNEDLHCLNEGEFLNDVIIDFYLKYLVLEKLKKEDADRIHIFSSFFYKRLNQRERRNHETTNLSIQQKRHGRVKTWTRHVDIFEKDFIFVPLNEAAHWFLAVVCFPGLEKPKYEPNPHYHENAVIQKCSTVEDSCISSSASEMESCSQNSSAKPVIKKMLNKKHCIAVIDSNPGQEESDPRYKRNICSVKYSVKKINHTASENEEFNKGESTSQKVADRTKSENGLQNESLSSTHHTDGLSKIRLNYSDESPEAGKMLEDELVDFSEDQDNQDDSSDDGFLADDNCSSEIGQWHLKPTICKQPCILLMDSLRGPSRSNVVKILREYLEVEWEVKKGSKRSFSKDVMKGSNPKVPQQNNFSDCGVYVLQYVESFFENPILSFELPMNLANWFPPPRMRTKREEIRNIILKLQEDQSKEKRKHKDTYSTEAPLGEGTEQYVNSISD

[20] = molecular target: DNA dC->dU-editing enzyme APOBEC-3A (Homo sapiens, UniProt P31941); test: APOBEC3A DNA deaminase inhibitors, dose response, biochemical (AID 504722); assay type: functional
[21] = molecular target: DNA dC->dU-editing enzyme APOBEC-3G (Homo sapiens, UniProt Q9HC16); test: Dose Response confirmation of small molecule APOBEC3G DNA Deaminase Inhibitors via a fluorescence-based single-stranded DNA deaminase assay. [Related pubchem assays (depositor defined):AID493012, AID493028]; assay type: functional

T1 sequence (Q00975 whole entry, the tested form may be a part): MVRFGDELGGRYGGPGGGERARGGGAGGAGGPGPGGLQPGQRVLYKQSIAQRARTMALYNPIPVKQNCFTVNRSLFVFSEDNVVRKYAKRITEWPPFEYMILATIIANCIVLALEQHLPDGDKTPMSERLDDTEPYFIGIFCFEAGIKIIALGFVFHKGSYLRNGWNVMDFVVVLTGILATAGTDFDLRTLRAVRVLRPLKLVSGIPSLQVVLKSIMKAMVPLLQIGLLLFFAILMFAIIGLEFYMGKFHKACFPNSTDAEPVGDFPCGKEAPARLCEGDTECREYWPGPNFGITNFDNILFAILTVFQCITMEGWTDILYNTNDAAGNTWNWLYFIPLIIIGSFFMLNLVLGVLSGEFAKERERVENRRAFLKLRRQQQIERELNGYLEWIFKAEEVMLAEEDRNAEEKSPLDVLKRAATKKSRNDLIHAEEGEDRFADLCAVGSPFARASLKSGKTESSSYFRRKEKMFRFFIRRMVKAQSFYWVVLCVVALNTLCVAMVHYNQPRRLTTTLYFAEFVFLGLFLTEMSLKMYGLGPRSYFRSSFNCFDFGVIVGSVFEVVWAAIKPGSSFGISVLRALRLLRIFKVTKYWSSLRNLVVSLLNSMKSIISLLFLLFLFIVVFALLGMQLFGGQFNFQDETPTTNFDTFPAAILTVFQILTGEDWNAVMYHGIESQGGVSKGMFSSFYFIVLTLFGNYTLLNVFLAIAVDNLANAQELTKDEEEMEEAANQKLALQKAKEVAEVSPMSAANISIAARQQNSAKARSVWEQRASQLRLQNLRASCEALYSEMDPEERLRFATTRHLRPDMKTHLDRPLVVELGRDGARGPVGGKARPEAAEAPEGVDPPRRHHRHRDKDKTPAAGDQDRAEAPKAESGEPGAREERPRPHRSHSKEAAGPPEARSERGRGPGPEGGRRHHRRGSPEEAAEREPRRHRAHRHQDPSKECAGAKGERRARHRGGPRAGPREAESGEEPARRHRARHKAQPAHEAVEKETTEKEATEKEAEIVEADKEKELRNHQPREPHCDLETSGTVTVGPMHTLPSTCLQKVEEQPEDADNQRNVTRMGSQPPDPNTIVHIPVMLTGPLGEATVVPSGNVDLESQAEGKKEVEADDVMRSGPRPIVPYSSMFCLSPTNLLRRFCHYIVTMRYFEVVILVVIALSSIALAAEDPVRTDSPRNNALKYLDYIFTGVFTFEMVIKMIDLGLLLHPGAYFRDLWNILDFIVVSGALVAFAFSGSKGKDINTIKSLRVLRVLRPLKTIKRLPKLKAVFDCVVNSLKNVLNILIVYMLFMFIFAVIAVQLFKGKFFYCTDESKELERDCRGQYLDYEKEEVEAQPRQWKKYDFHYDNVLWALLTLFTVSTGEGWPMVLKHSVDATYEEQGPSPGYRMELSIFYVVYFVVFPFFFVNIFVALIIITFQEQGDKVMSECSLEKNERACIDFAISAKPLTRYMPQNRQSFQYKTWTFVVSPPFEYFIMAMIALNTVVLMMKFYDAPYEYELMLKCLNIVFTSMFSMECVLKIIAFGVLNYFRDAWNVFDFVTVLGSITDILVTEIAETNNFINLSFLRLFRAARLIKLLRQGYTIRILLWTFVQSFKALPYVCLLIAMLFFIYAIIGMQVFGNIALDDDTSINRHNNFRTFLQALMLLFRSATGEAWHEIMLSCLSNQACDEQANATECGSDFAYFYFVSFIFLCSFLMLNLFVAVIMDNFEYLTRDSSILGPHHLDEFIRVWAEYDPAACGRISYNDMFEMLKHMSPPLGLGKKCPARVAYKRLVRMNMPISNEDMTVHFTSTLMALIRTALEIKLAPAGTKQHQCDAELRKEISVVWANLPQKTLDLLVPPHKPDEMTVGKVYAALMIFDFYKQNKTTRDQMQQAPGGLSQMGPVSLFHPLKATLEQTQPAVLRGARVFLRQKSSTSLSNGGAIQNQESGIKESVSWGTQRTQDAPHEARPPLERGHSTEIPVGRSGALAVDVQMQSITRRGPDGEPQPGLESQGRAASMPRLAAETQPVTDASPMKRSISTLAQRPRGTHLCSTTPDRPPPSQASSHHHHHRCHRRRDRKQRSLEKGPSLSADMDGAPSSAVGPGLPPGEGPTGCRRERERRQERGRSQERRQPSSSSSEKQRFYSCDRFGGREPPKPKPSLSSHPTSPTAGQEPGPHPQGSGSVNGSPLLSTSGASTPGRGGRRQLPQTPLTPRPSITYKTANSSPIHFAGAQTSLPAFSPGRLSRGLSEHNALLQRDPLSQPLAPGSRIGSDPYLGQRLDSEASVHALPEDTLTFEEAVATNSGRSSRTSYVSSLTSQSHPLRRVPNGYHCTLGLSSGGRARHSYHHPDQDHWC
T1 sequence (Q02410 whole entry, the tested form may be a part): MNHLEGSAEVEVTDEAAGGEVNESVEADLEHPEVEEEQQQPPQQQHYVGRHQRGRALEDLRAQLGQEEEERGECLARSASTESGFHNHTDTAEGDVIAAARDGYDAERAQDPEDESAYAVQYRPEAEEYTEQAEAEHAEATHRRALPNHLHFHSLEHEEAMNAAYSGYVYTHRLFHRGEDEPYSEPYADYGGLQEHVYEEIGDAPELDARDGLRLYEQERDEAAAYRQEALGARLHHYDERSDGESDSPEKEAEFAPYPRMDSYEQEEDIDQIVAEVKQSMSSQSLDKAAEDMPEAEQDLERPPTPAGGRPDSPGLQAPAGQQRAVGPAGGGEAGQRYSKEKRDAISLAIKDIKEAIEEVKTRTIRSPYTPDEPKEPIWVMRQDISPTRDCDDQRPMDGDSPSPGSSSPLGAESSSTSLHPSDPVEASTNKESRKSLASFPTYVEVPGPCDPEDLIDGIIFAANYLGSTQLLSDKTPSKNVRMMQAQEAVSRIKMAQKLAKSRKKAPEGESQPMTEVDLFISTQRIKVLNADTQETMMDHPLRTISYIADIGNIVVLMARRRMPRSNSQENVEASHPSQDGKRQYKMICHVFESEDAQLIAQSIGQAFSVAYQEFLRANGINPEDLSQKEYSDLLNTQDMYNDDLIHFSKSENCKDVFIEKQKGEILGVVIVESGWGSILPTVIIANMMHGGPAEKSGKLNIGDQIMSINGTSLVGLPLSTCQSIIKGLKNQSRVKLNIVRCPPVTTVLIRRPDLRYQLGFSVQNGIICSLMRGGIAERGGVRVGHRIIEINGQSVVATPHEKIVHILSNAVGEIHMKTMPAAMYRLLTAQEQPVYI

O=C(O)CCn1cc(C=C2C(=O)NC(=S)NC2=O)c(-c2cccc(Cl)c2)n1
IC50 (Large T antigen): 76.3 µM (active)
IC50 [1]: 30.7 µM (active)
IC50 [2]: 10.1 µM (active)
IC50 (Genome polyprotein): 10.9 µM (active)
IC50 [3]: 2.87 µM (active)
IC50 [4]: 13 µM (active)

Nc1c(O)ccc2c1C(=O)c1ccccc1C2=O
EC50 [5]: > 300 µM (not active)
IC50 [3]: 3.66 µM (not active)
IC50 [6]: 4.15 µM (active)
IC50 (Protein Rev): > 75.4 µM (not active)
EC50 [7]: 10.4 µM (active)

CCN(CC)c1ccc2nc3ccc(N)cc3[n+](-c3ccccc3)c2c1
IC50 [8]: 67.7 µM (inactive)
AC50 [9]: 1.28 µM (active)
IC50 (Nonstructural protein 1): 8.47 µM (active)
IC50 [10]: 4.79 µM (active)
AC50 [11]: 3.84 µM (active)
AC50 [12]: 3.78 µM (active)
AC50 [13]: 1.41 µM (active)
AC50 [14]: 3.25 µM (active)

CC(=O)NS(=O)(=O)c1ccc(NC(=O)/C=C/c2ccc(C)o2)cc1
IC50 [15]: > 56.8 µM (inactive)
IC50 [1]: 6.9 µM (active)
IC50 [4]: 2.19 µM (active)

CCCC1CCC(c2ccc(OCC)cc2)=CC1=O (stereo unspecified)
EC50 (H4): 20.7 µM (inconclusive)
IC50 [10]: 53.9 µM (active)
IC50 [16]: 10.1 µM (active)
IC50 (Caspase-3): 21.3 µM (active)
IC50 [17]: 40.2 µM (active)
EC50 [18]: 0.126 µM (active)
IC50 [19]: 29.6 µM (active)

Cc1ccccc1/C=N/n1c(S)nnc1-c1ccccn1
IC50 [20]: > 100 µM (inactive)
IC50 [21]: 4.13 µM (active)
